“Also recorded” adds a separate entry of the source.
Assays:
PICSCs [1] = assay: Growth and survival of PICSCs after drug treatment; format: cell-based, mouse
Protocol: The PICSCs cells were treated with 100 μM drug (suprapharmacological dose) for 48 hours, and their growth and survival were evaluated. […] Moreover, the in vitro testing strategies allows for a mechanistic study of such compounds.

PICSCs [2] = assay: LIVE/DEAD Viability/Cytotoxicity Assay on PICSCs; format: cell-based, mouse; details: 48 hours, single agent
Protocol: This Example is directed to stem cell assays utilizing PICSCs generated in accordance with the presently disclosed and claimed inventive concept(s). The PICSCs were generated as described herein above (i.e., transformation of NIH-3T3 cells with RBM3 gene, followed by transplantation into a nude mouse, then sorting of cells obtained from generated tumors utilizing DCAMKL-1).
The PICSCs were exposed to various compounds/anti-cancer agents, and cell viability assays were then performed using the LIVE/DEAD® Viability/Cytotoxicity Assay from Molecular Probes/Invitrogen (Eugene, Oreg.). The LIVE/DEAD® Viability/Cytotoxicity Assay is an assay that provides a two-color fluorescence cell viability that is based on the simultaneous determination of both live and dead cells.
Briefly, PICSCs cells were grown in a 96 well microtitre plate ([…], Newton, N.C.) to about 40% confluency and treated with anti-cancer agents/compounds for 48 hours. Subsequently, chromogenic substrates Calcein AM and Ethidium homodimer-1 (EthD-1) was added to the cells. Calcein AM is well retained within the live cells, producing uniform green fluorescence in live cells (measured at 515 nM). EthD-1 enters cells with damaged membranes and undergoes an enhancement of fluorescence upon binding to nucleic acids, thereby producing a bright red fluorescence in dead cells (measured at 617 nM). The fluorescence measurement was carried out using a microtitre plate reader (Synergy HT, BIO-TEK, Vinooski, Vt.).
In FIGS. 70-84, the PICSCs were treated with increasing concentrations of various compounds or combinations of compounds for 48 hours, and the data presented therein is represented as a % Dead/Live cells ratio following said treatment. […] Values in each figure are given as average±Standard Error Mean, and asterisks denote statistically significant differences (*p<0.01) compared with control.

HCV subgenomic replicon = assay: HCV replication in GS5 cells (Huh7.5 with HCV subgenomic replicon); format: cell-based, hepatitis C virus; details: disruption of microtubules
Protocol: FIG. 61 illustrates that DCAMKL-1 is required for the HCV replication. A. siRNA against DCAMKL-1 (Si-DCAMKL1, 50 nM and 100 nM) or scrambled siRNA (SCR, 100 nM) were transfected into GS5 cells. Total RNAs were extracted and subjected to real-time quantitative PCR. The levels of HCV and DCAMKL-1 RNAs were considered arbitrary as one unit in untransfected GS5 cells (Cont). Actin mRNA in each sample was used as internal control for PCR. B. Western blot analysis of siRNAs tranfected and untransfected samples as indicated.
Induction of putative stem cell/pluripotency factors by HCV: Normal adult hepatocytes are fully differentiated cells and lack expression of pluripotency factors. However, these cells can be induced to proliferate rapidly after partial hepatectomy and can also be reprogrammed into stem-like cells by forced expression of a cocktail of transcription factors. Thus, the impact of HCV on expression pattern of stem/progenitor cell markers was investigated in GS5 cells, which are derived from hepatoma cell line (Huh7.5) and support constitutive replication of a subgenomic HCV replicon under G418 selection. The replicon expresses HCV nonstructural proteins NS3 through NS5B of the HCV-1a strain and green florescent protein (GFP)-NS5A chimera. Total lysates from parent Huh7.5 and GS5 cells were subjected to Western blot analysis (FIG. 59).
Putative intestinal stem cell marker DCAMKL1 is required for the HCV replication: The eccentric, punctate staining of HCV replication complexes consisting of most of the nonstructural proteins and cellular factors has been a puzzling question. It is known that these replication complexes associate with microtubules in order to replicate the HCV RNA. The DCAMKL1 protein, which binds and polymerizes tubulin into microtubule filaments, is considered as a putative marker for quiescent stem cells in the intestine, and its expression is increased in cancer stem cells. During confocal microscopy, most DCAMKL1 localization was consistently observed in the area containing replication complexes (indicated by NS5A-GFP) and high concentration of microtubules (FIG. 60). The perinuclear co-localization of DCAMKL1 with the NS5A-GFP (indicated by yellow stain) was also observed.

[3] = tested on: Pdx1-Cre; LSL-KRAS^G12D; p53^lox/+ mouse model of pancreatic neoplasia; details: inhibition of Notch signaling; cited from earlier work
PICSC tumor xenografts = assay: PICSC generated isograft tumor growth in mice; format: in vivo; details: mouse, in vivo
Protocol: To determine whether targeted DCAMKL-1 downregulation and/or Notch inhibition affected […] generated isograft tumor growth, mice were treated with siRNA to DCAMKL-1 or the Notch inhibitor DAPT. After the tumors were allowed to develop (15 days), siRNA was injected a total of 5 times at an interval of 3 days as described earlier.

HCT116 tumor xenografts = assay: HCT116 tumor xenograft model in athymic nude mice, intratumoral treatment; format: in vivo; details: HCT 116-induced tumor xenograft, via induction of apoptosis
Source text: Real-time reverse transcription-PCR analyses. Total RNA isolated either from cells or from human colon cancer cell tumor xenograft samples was subjected to reverse transcription with Superscript™ II RNase H—Reverse Transcriptase and random hexanucleotide primers (Invitrogen, Carlsbad, Calif.). The cDNA was subsequently used to perform Real-time PCR by SYBR chemistry (SYBR® Green I; Molecular Probes) for specific transcripts using gene specific primers and Jumpstart Taq DNA polymerase (Sigma-Aldrich, St. Louis, Mo.). […] The changes in mRNA were expressed as fold change relative to control with ±SEM value.
miRNA analysis. Total miRNA was isolated using mirVana™ miRNA isolation kit (Ambion Inc.). Total miRNA isolated either from cells or from human colon cancer cell tumor xenograft samples were subjected to reverse transcription with Superscript™ II RNase H—Reverse Transcriptase and random hexanucleotide primers (Invitrogen, Carlsbad, Calif.). The cDNA was subsequently used to perform Real-time PCR by SYBR chemistry (SYBR® Green I; Molecular Probes) for pri-let-7a transcript using specific primers and Jumpstart Taq DNA polymerase (Sigma-Aldrich, St. Louis, Mo.). […] The changes in pri-miRNA were expressed as fold change relative to control with ±SEM value. Primers used are: […]
Western Blot analysis. HCT116 and SW480 cells were cultured in a 6 well plates to 40% confluency and were transfected with si-DCAMKL-1 or si-Scr for 72 h. Cells or the tumor xenograft samples were lysed and the concentration of protein was determined by BCA protein assay kit (Pierce Biotechnology Inc., Rockford, Ill.). […] The membrane was blocked in 5% non-fat dry milk for 1 h and probed overnight with a rabbit anti-DCAMKL-1 antibody (Abcam Inc., Cambridge, Mass.) or with rabbit anti-c-Myc antibody (Santa Cruz). Subsequently, the membrane was incubated with anti-rabbit or anti-goat IgG horseradish peroxidase-conjugated antibodies (Amersham-Pharmacia) for 1 h at room temperature. The 82 kDa DCAMKL-1 and 49 kDa c-Myc proteins were detected using ECL™ Western Blotting detection reagents (Amersham-Pharmacia). Actin (43 kDa), used as loading control was identified using a goat polyclonal IgG (Santa Cruz Biotechnology Inc., Santa Cruz, Calif.).
Immunohistochemistry. Heat Induced Epitope Retrieval was performed on 4 μm formalin-fixed paraffin-embedded sections utilizing a pressurized Decloaking Chamber (Biocare Medical) in citrate buffer (pH 6.0) at 99° C. for 18 min. (a) Brightfield: Slides were incubated in 3% hydrogen peroxide, then normal serum and BSA at room temperature for 20 min. After incubation with primary antibody [DCAMKL-1 C-terminal (Abcam), anti-c-Myc (Santa Cruz Biotechnologies), L-FABP (Santa Cruz Biotechnologies)], the slides were incubated in peroxidase-conjugated EnVision™+polymer detection kit (DAKO). Slides were developed with Diaminobenzidine (Sigma). (b) Fluorescence: Slides were first incubated in Image-iT FX signal enhancer (Invitrogen), followed by normal serum and BSA at room temperature for 20 min.
Xenograft tumor model. (a) Liposomal preparation: siRNA was administered into the xenografts after incorporation into 1,2-Dioleoyl-sn-Glycero-3-Phosphocholine (DOPC) (Avanti Polar Lipids, Alabaster, Ala.). DOPC and siRNA were mixed in the presence of excess tertiary butanol at a ratio of 1:10 (w/w) (siRNA/DOPC). Tween 20 (Sigma-Aldrich) was added to the mixture at a ratio of 1:19 Tween 20:siRNA/DOPC. The mixture was vortexed and frozen in an acetone/dry ice bath and lyophilized. Before administration, the siRNA preparation was reconstituted in 0.9% sterile saline and injected at a dose of 50 μl (5 μM) per injection. (b) Tumor therapy: Female athymic nude mice (NCr-nu) were purchased from the National Cancer Institute-Frederick Cancer Research and Development Center (Frederick, Md.) and housed in specific pathogen-free conditions.

## CCc1c2c(nc3ccc(OC(=O)N4CCC(N5CCCCC5)CC4)cc13)-c1cc3c(c(=O)n1C2)COC(=O)[C@]3(O)CC [CPT-11, Irinotecan]
PICSCs [1]; 100 μM drug, 48 hours
  growth and survival of PICSCs: no significant effect
PICSCs [2]
  PICSC cell death (% Dead/Live cells ratio): no cell death

## Nc1ccn([C@@H]2O[C@H](CO)[C@@H](O)C2(F)F)c(=O)n1 [Gemcitabine]
PICSCs [2]
  PICSC cell death (% Dead/Live cells ratio): significant increase in PICSC cell death

## N.N.[Cl][Pt][Cl] [Cisplatin]
PICSCs [2]
  PICSC cell death (% Dead/Live cells ratio): increasing levels of PICSC cell death

## CC[C@]1(O)C[C@@H]2CN(CCc3c([nH]c4ccccc34)[C@@](C(=O)OC)(c3cc4c(cc3OC)N(C)[C@H]3[C@@](O)(C(=O)OC)[C@H](OC(C)=O)[C@]5(CC)C=CCN6CC[C@]43[C@@H]65)C2)C1 [vinblastin, reference compound]
HCV subgenomic replicon
  HCV replication: inhibition

## OO [hydrogen peroxide]
PICSCs [2]
  PICSC cell death (% Dead/Live cells ratio): complete cell death

## O=S1(=O)N[C@@]2(CN1CC(F)(F)F)[C@@H]1CC[C@H]2Cc2ccc(/C=C/CN3CCC(C(F)(F)F)CC3)cc2C1 [MRK-003]
[3]
  tumor development: completely inhibited tumor development; also recorded: completely blocked tumor development

## COc1cc(/C=C/C(=O)CC(=O)/C=C/c2ccc(O)c(OC)c2)ccc1O [curcumin]
PICSCs [1]; 30 μM
  neurite formation, cell growth and cell death of PICSCs: inhibited neurite formation, suppressed cell growth and induced cell death

## C[C@H](NC(=O)Cc1cc(F)cc(F)c1)C(=O)N[C@H](C(=O)OC(C)(C)C)c1ccccc1 [DAPT]
PICSC tumor xenografts
  anti-CSC growth properties: potent anti-CSC growth properties
PICSCs [2]
  PICSC cell death (% Dead/Live cells ratio): increasing levels of PICSC cell death

## O=C1C(=Cc2ccccc2F)CNCC1=Cc1ccccc1F [EF24, 3,5-bis(2-fluorobenzylidene)piperidin-4-one]
HCT116 tumor xenografts
  tumor xenograft growth: significantly inhibited
PICSCs [1]; 1 μM
  neurite formation, cell growth and cell death of PICSCs: inhibited neurite formation, suppressed cell growth and induced cell death
PICSC tumor xenografts
  anti-CSC growth properties: potent anti-CSC growth properties
PICSCs [2]
  PICSC cell death (% Dead/Live cells ratio): increasing levels of PICSC cell death
